What follows are compounds tested against T1, CHK1 kinase (Homo sapiens, UniProt O14757) (assay: Flashplate method (CHK1), measurement of the CHK1 kinase activity). Conditions: class symbols; 'Affinity to receptors'.
T1 construct: glutathione S-transferase (GST); made in house; host or cells: Sf21 insect cells (S. frugiperda), baculovirus
T1 sequence (O14757 1-476): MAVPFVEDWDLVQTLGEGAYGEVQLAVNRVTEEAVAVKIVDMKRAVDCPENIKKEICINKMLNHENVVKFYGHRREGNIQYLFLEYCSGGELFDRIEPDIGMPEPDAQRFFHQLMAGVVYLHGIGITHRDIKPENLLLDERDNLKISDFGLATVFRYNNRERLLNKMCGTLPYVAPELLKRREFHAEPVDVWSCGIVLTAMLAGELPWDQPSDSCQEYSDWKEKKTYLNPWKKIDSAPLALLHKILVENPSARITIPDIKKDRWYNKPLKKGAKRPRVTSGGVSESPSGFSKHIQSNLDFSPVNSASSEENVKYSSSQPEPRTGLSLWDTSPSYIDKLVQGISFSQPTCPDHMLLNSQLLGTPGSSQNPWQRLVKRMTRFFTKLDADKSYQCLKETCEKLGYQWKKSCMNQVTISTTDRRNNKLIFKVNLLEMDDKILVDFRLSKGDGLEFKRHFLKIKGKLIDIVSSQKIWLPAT
Assay type: biochemical
Procedure, shortened: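 GST-tagged CHK1 expressed in Sf21 insect cells, incubated at 30 °C with biotinylated CHKtide (0.15 μg per well) and γ33P-ATP in pH 7.5 buffer (EGTA, Mg acetate, mercaptoethanol, 0.1% BSA). Stopped with EDTA, captured on streptavidin Flashplates and counted by scintillation. IC50 set against uninhibited reaction and 0.1 μM staurosporine as zero.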

IC50, > 1000 nM:
O=c1c(NCCc2ccccc2O)c(Nc2ccc3[nH]cnc3c2)c1=O [Compound A149, 3-(1H-benzimidazol-5-ylamino)-4-[2-(2-hydroxyphenyl)ethylamino]cyclobut-3-ene-1,2-dione]
CS(=O)(=O)c1ccc(CNc2c(Nc3ccc4[nH]cnc4c3)c(=O)c2=O)cc1 [Compound A150, 3-(1H-benzimidazol-5-ylamino)-4-(4-methyl-sulfonylbenzylamino)cyclobut-3-ene-1,2-dione]
NS(=O)(=O)c1ccc(CNc2c(Nc3ccc4[nH]cnc4c3)c(=O)c2=O)cc1 [Compound A151, 3-(1H-benzimidazol-5-ylamino)-4-(4-amino-sulfonylbenzylamino)cyclobut-3-ene-1,2-dione]
CNS(=O)(=O)c1ccc(CNc2c(Nc3ccc4[nH]cnc4c3)c(=O)c2=O)cc1 [Compound A152, 3-(1H-benzimidazol-5-ylamino)-4-[4-(N-methylaminosulfonyl)benzylamino]cyclobut-3-ene-1,2-dione]
CNS(=O)(=O)c1ccc(CN(C)c2c(Nc3ccc4[nH]cnc4c3)c(=O)c2=O)cc1 [Compound A153, 3-(1H-benzimidazol-5-ylamino)-4-[4-(N-methylaminosulfonyl)benzyl-N-methylamino]-cyclobut-3-ene-1,2-dione]
CNS(=O)(=O)c1ccccc1CNc1c(Nc2ccc3[nH]cnc3c2)c(=O)c1=O [Compound A154, 3-(1H-benzimidazol-5-ylamino)-4-[2-(N-methylaminosulfonyl)benzylamino]cyclobut-3-ene-1,2-dione]
NS(=O)(=O)c1ccccc1CNc1c(Nc2ccc3[nH]cnc3c2)c(=O)c1=O [Compound A155, 3-(1H-benzimidazol-5-ylamino)-4-(2-amino-sulfonylbenzylamino)cyclobut-3-ene-1,2-dione]
CS(=O)(=O)Nc1ccc(CNc2c(Nc3ccc4[nH]cnc4c3)c(=O)c2=O)cc1 [Compound A156, 3-(1H-benzimidazol-5-ylamino)-4-(4-methyl-sulfonylaminobenzylamino)cyclobut-3-ene-1,2-dione]
CC(=O)Nc1ccc(CNc2c(Nc3ccc4[nH]cnc4c3)c(=O)c2=O)cc1 [Compound A157, 3-(1H-benzimidazol-5-ylamino)-4-(4-acetamidobenzylamino)cyclobut-3-ene-1,2-dione]
O=c1c(NCc2ccccc2O)c(Nc2ccc3[nH]cnc3c2)c1=O [Compound A158, 3-(1H-benzimidazol-5-ylamino)-4-(2-hydroxy-benzylamino)cyclobut-3-ene-1,2-dione]
NC(=O)c1ccc(CNc2c(Nc3ccc4[nH]cnc4c3)c(=O)c2=O)cc1 [Compound A159, 3-(1H-benzimidazol-5-ylamino)-4-(4-amino-carbonylbenzylamino)cyclobut-3-ene-1,2-dione]
O=c1[nH]c2cc(CNc3c(Nc4ccc5[nH]cnc5c4)c(=O)c3=O)ccc2o1 [Compound A160, 3-(1H-benzimidazol-5-ylamino)-4-[(2-oxo-2,3-dihydrobenzoxazol-5-ylmethyl)amino]-cyclobut-3-ene-1,2-dione]
Cc1ccc(CC(O)c2cccc(CNc3c(Nc4ccc5[nH]cnc5c4)c(=O)c3=O)c2)cc1 (stereo not drawn) [Compound A161, 3-(1H-benzimidazol-5-ylamino)-4-[3-(1-hydroxy-2-p-tolylethyl)benzylamino]cyclobut-3-ene-1,2-dione]
O=c1c(NCc2ccc(Cl)c(Cl)c2)c(Nc2ccc3[nH]cnc3c2)c1=O [Compound A162, 3-(1H-benzimidazol-5-ylamino)-4-(3,4-dichlorobenzylamino)cyclobut-3-ene-1,2-dione]
O=c1cnc2ccc(CNc3c(Nc4ccc5[nH]cnc5c4)c(=O)c3=O)cc2[nH]1 [Compound A163, 3-(1H-benzimidazol-5-ylamino)-4-[(3-oxo-3,4-dihydroquinoxalin-6-ylmethyl)amino]cyclobut-3-ene-1,2-dione]
O=c1c(NCc2cccc(OC(F)F)c2)c(Nc2ccc3nc[nH]c3c2)c1=O [Compound A164, 3-(3H-benzimidazol-5-ylamino)-4-(3-difluoro-methoxybenzylamino)cyclobut-3-ene-1,2-dione]
CCN(CC)CCn1cnc2ccc(Nc3c(NCc4ccc(-c5nnn[nH]5)cc4)c(=O)c3=O)cc21 [Compound A167, 3-[3-(2-diethylaminoethyl)-3H-benzimidazol-5-ylamino]-4-[4-(1H-tetrazol-5-yl)benzyl-amino]cyclobut-3-ene-1,2-dione]
CCN(CC)CCn1cnc2cc(Nc3c(N[C@H](C)c4cccc(OC)c4)c(=O)c3=O)ccc21 [Compound A168, 3-[1-(2-diethylaminoethyl)-1H-benzimidazol-5-ylamino]-4-[(R)-1-(3-methoxyphenyl)ethyl-amino]cyclobut-3-ene-1,2-dione]
